Measurements published in US20250304537A1 (Repare Therapeutics Inc., priority 2022, published 2025).
pIC50: −log10 of the molar value. Like-named read-outs stand apart in the source and are kept apart here.

System: PKMYT1 (CDK1 pThr14) in FUOV1 cells
Experiment: PKMYT1 cell-based activity assay, CDK1 pThr14 AlphaLISA in FUOV1 cells
Settings: read-out: FUOV-1 CDK1 pThr14 IC50
How it was run: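 FUOV1 cells were treated with PKMYT1 inhibitor for 2 h at 37 °C, then lysed. CDK1 pThr14 was measured by AlphaLISA, pairing an anti-pThr14 antibody with an anti-total CDK1 antibody (5 nM each). Signal read at 680/615 nm and used to derive IC50.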

## Cc1ccc2[nH]ncc2c1-c1nc(-c2cccnc2NC[C@@H]2CCCO2)nc(C(N)=O)c1N [Compound 670]
2 h, 2 h compound incubation
  pIC50: 6.70

## Cc1ccc2[nH]ncc2c1-c1nc(-c2ccc(Cl)nc2Nc2ncccc2C(F)F)nc(C(N)=O)c1N [Compound 944]
2 h, 2 hours with compound
  pIC50: 7.55

## Cc1ccc2[nH]ncc2c1-c1nc(-c2cccnc2N[C@H]2CCOC[C@H]2F)nc(C(N)=O)c1N [Compound 644]
2 h, 2 h compound incubation
  pIC50: 8.00

## Cc1ccc2[nH]ncc2c1-c1nc(-c2cc(F)c(F)cc2NCC(N)CO)nc(C(N)=O)c1N (stereo not shown) [Compound 501]
2 h, 2 h compound incubation
  pIC50: 6.84

## Cc1ccc2[nH]ncc2c1-c1nc(-c2cc(F)cnc2N[C@@H](C)C(F)(F)F)nc(C(N)=O)c1N [Compound 888]
2 h, 2 hours with compound
  pIC50: 6.95

## N#Cc1cccnc1Nc1nc(F)ccc1-c1nc(C(N)=O)c(N)c(-c2c(F)ccc3[nH]ncc23)n1 [Compound 969]
2 h, 2 hours with compound
  pIC50: 7.80

## Cc1ccc2[nH]ncc2c1-c1nc(-c2cccnc2Nc2nc(F)ccc2F)nc(C(N)=O)c1O [Compound 806, 2-(2-((3,6-difluoropyridin-2-yl)amino)pyridin-3-yl)-5-hydroxy-6-(5-methyl-1H-indazol-4-yl)pyrimidine-4-carboxamide]
2 h, 2 hours with compound
  pIC50: < 5.00

## Cc1ccc2[nH]ncc2c1-c1cc(-c2ccnc(OCC(F)(F)F)n2)nc(C(N)=O)c1N [Compound 165]
2 h incubation
  pIC50: < 5.00

## Cc1cc(F)c2[nH]ncc2c1-c1nc(-c2ccc(F)nc2Nc2ncccc2F)nc(C(N)=O)c1N [Compound 864]
2 h, 2 hours with compound
  pIC50: 8.05

## Cc1ccc2[nH]ncc2c1-c1nc(-c2ccc(F)cc2Nc2nccnc2C)nc(C(N)=O)c1N [Compound 640]
2 h, 2 h compound incubation
  pIC50: 8.70

## [2H]C([2H])([2H])c1ccc2[nH]ncc2c1-c1nc(-c2cccnc2NC23CC(C#N)(C2)C3)nc(C(N)=O)c1N [Compound 957, 5-amino-2-[2-[(3-cyano-1-bicyclo[1.1.1]pentanyl)amino]-3-pyridyl]-6-[5-(trideuteriomethyl)-1H-indazol-4-yl]pyrimidine-4-carboxamide]
2 h, 2 hours with compound
  pIC50: 6.80

## Cc1ccc2[nH]ncc2c1-c1nc(-c2cc(F)c(F)cc2NC2CCCC2(C)C)nc(C(N)=O)c1N (stereo not shown) [Compound 488]
2 h, 2 h compound incubation
  pIC50: 6.06

## Cc1ccc2[nH]ncc2c1-c1nc(-c2cc(F)cnc2N[C@@H]2CCOCC2(F)F)nc(C(N)=O)c1N [Compound 883]
2 h, 2 hours with compound
  pIC50: 7.44

## Cc1ccc2[nH]ncc2c1-c1nc(-c2ccc(F)cc2Nc2ccncn2)nc(C(N)=O)c1N [Compound 513]
2 h, 2 h compound incubation
  pIC50: 7.80

## [2H]C([2H])([2H])c1ccc2[nH]ncc2c1-c1nc(-c2ccc(F)nc2Nc2nc(C)ncc2F)nc(C(N)=O)c1N [Compound 972]
2 h, 2 hours with compound
  pIC50: 7.85

## Cc1ccc2[nH]ncc2c1-c1nc(-c2cccnc2NC2CCCC2)nc(C(N)=O)c1N [Compound 681]
2 h, 2 h compound incubation
  pIC50: 7.96

## Cc1ccc2[nH]ncc2c1-c1nc(-c2cc(Cl)ncc2Nc2ncccn2)nc(C(N)=O)c1N [Compound 955, 5-amino-2-(2-chloro-5-(pyrimidin-2-ylamino)pyridin-4-yl)-6-(5-methyl-1H-indazol-4-yl)pyrimidine-4-carboxamide]
2 h, 2 hours with compound
  pIC50: 7.29

## Cc1ccc2[nH]ncc2c1-c1nc(-c2ccc(Cl)nc2Nc2ncccc2F)nc(C(N)=O)c1N [Compound 781]
2 h, 2 h compound incubation
  pIC50: 8.30

## Cc1cccnc1Nc1nc(Cl)ccc1-c1nc(C(N)=O)c(N)c(-c2c(C)ccc3[nH]ncc23)n1 [Compound 736, 5-amino-2-(6-chloro-2-((3-methylpyridin-2-yl)amino)pyridin-3-yl)-6-(5-methyl-1H-indazol-4-yl)pyrimidine-4-carboxamide]
2 h, 2 h compound incubation
  pIC50: 8.22

## N#Cc1cccnc1Nc1cc(F)ccc1-c1nc(C(N)=O)c(N)c(-c2c(F)ccc3[nH]ncc23)n1 [Compound 968]
2 h, 2 hours with compound
  pIC50: 8.40

## CCc1cccnc1Nc1ncccc1-c1nc(C(N)=O)c(N)c(-c2c(C)ccc3[nH]ncc23)n1 [Compound 730]
2 h, 2 h compound incubation
  pIC50: 7.72

## Cc1ccc2[nH]ncc2c1-c1nc(-c2cccnc2Nc2nc(C(F)F)ccc2F)nc(C(N)=O)c1N [Compound 842]
2 h, 2 hours with compound
  pIC50: 8.52

## Cc1ccc2[nH]ncc2c1-c1nc(-c2cccnc2NC2CC(=O)N(C)C2)nc(C(N)=O)c1N (stereo not shown) [Compound 552]
2 h, 2 h compound incubation
  pIC50: 6.61

## Cc1ccc2[nH]ncc2c1-c1nc(-c2cccc(F)c2Nc2ncccn2)nc(C(N)=O)c1N [Compound 769]
2 h, 2 h compound incubation
  pIC50: 6.64

## COCCCNc1ncccc1-c1nc(C(N)=O)c(N)c(-c2c(C)ccc3[nH]ncc23)n1 [Compound 537]
2 h, 2 h compound incubation
  pIC50: 6.59

## Cc1nc(F)cc(Nc2cc(F)ccc2-c2nc(C(N)=O)c(N)c(-c3c(C)ccc4[nH]ncc34)n2)n1 [Compound 568]
2 h, 2 h compound incubation
  pIC50: 7.82

## Cc1ccc2[nH]ncc2c1-c1nc(-c2ccc(F)cc2Nc2ccnnc2)nc(C(N)=O)c1N [Compound 553]
2 h, 2 h compound incubation
  pIC50: 6.74

## Cc1cc(F)c2[nH]ncc2c1-c1nc(-c2ccc(F)nc2Nc2ncccc2C(F)F)nc(C(N)=O)c1N [Compound 878]
2 h, 2 hours with compound
  pIC50: 7.44

## Cc1ccc2[nH]ncc2c1-c1nc(-c2cc(F)ccc2NS(=O)(=O)C(F)F)nc(C(N)=O)c1N [Compound 493]
2 h, 2 h compound incubation
  pIC50: 6.17

## Cc1cncc(Nc2nc(C)ccc2-c2nc(C(N)=O)c(N)c(-c3c(C)ccc4[nH]ncc34)n2)n1 [Compound 688]
2 h, 2 h compound incubation
  pIC50: 6.74

## Cc1ccc2[nH]ncc2c1-c1nc(-c2ccncc2NC(=O)OC(C)(C)C)nc(C(N)=O)c1N [Compound 495]
2 h, 2 h compound incubation
  pIC50: 6.70

## Cc1ccc2[nH]ncc2c1-c1nc(-c2cnncc2NCC(F)(F)F)nc(C(N)=O)c1N [Compound 669]
2 h, 2 h compound incubation
  pIC50: < 5.00

## Cc1ccc2[nH]ncc2c1-c1nc(-c2ccc(C(F)(F)F)nc2Nc2ncccn2)nc(C(N)=O)c1N [Compound 760]
2 h, 2 h compound incubation
  pIC50: 6.70

## Cc1ccc2[nH]ncc2c1-c1nc(-c2ccc(F)cc2Nc2ccnc(C3CC3)n2)nc(C(N)=O)c1N [Compound 940]
2 h, 2 hours with compound
  pIC50: 6.57

## [2H]C([2H])([2H])c1ccc2[nH]ncc2c1-c1nc(-c2ccc(C(F)F)nc2Nc2ncccc2F)nc(C(N)=O)c1N [Compound 959]
2 h, 2 hours with compound
  pIC50: 8.10

## Cc1cnc(C)c(Nc2ncccc2-c2nc(C(N)=O)c(N)c(-c3c(C)ccc4[nH]ncc34)n2)n1 [Compound 718]
2 h, 2 h compound incubation
  pIC50: 7.41

## Cc1ccc2[nH]ncc2c1-c1nc(-c2ccc(F)cc2N[C@H]2C[C@](C)(O)C2)nc(C(N)=O)c1N [Compound 861]
2 h, 2 hours with compound
  pIC50: 7.02

## Cc1ccc2[nH]ncc2c1-c1nc(-c2cccnc2Nc2nccnc2Cl)nc(C(N)=O)c1N [Compound 763]
2 h, 2 h compound incubation
  pIC50: 7.54

## Cc1c(F)cc2[nH]ncc2c1-c1nc(-c2ccc(F)nc2Nc2nccnc2C(F)F)nc(C(N)=O)c1N [Compound 854]
2 h, 2 hours with compound
  pIC50: 7.06

## Cc1ccc2[nH]ncc2c1-c1nc(-c2ccc(F)cc2Nc2ncc(C#N)cn2)nc(C(N)=O)c1N [Compound 535]
2 h, 2 h compound incubation
  pIC50: 6.82

## Cc1ccc2[nH]ncc2c1-c1nc(-c2c[nH]nc2NC2CCOCC2)nc(C(N)=O)c1N [Compound 927]
2 h, 2 hours with compound
  pIC50: 6.46

## Cc1ccc2[nH]ncc2c1-c1nc(-c2cc(F)c(F)cc2NC2CCS(=O)(=O)CC2)nc(C(N)=O)c1N [Compound 529]
2 h, 2 h compound incubation
  pIC50: 6.60

## Cc1ccc2[nH]ncc2c1-c1nc(-c2cc(F)cnc2NCC(F)F)nc(C(N)=O)c1N [Compound 504]
2 h, 2 h compound incubation
  pIC50: 7.51

## Cc1ccc2[nH]ncc2c1-c1nc(-c2ccc(F)cc2Nc2cccnn2)nc(C(N)=O)c1N [Compound 515]
2 h, 2 h compound incubation
  pIC50: 7.96

## Cc1ccc(O)c(C)c1-c1nc(-c2cccnc2Nc2nccnc2C)nc(C(N)=O)c1N [Compound 727, 5-amino-6-(3-hydroxy-2,6-dimethylphenyl)-2-(2-((3-methylpyrazin-2-yl)amino)pyridin-3-yl)pyrimidine-4-carboxamide]
2 h, 2 h compound incubation
  pIC50: 8.52

## Cc1ccc2[nH]ncc2c1-c1nc(-c2cc(F)ccc2Nc2ncc(Cl)s2)nc(C(N)=O)c1N [Compound 510]
2 h, 2 h compound incubation
  pIC50: 6.06

## NC(=O)c1nc(-c2ccc(C(F)F)nc2Nc2ncccc2F)nc(-c2c(F)ccc3[nH]ncc23)c1N [Compound 970]
2 h, 2 hours with compound
  pIC50: 7.40

## Cc1ccc2[nH]ncc2c1-c1nc(-c2cc(F)ccc2NS(=O)(=O)C2CCCC2)nc(C(N)=O)c1N [Compound 531]
2 h, 2 h compound incubation
  pIC50: 6.04

## Cc1cncc(Nc2cc(F)ccc2-c2nc(C(N)=O)c(N)c(-c3c(C)ccc4[nH]ncc34)n2)c1 [Compound 666]
2 h, 2 h compound incubation
  pIC50: 7.42

## Cc1ccnc(Nc2ncccc2-c2nc(C(N)=O)c(N)c(-c3c(C)ccc4[nH]ncc34)n2)c1C [Compound 738]
2 h, 2 h compound incubation
  pIC50: 6.42

## Cc1ccc2[nH]ncc2c1-c1nc(-c2cnsc2NC2CCOCC2)nc(C(N)=O)c1N [Compound 856]
2 h, 2 hours with compound
  pIC50: 7.46

## Cc1ccc2[nH]ncc2c1-c1nc(-c2ccc(F)nc2Nc2ncccc2C(F)F)nc(C(N)=O)c1N [Compound 945]
2 h, 2 hours with compound
  pIC50: 7.64

## Cc1ccc2[nH]ncc2c1-c1nc(-c2ccncc2Nc2ncccn2)nc(C(N)=O)c1N [Compound 951]
2 h, 2 hours with compound
  pIC50: 7.80

## Cc1cccnc1Nc1cc(C#N)ccc1-c1nc(C(N)=O)c(N)c(-c2c(C)ccc3[nH]ncc23)n1 [Compound 754]
2 h, 2 h compound incubation
  pIC50: 7.77

## Cc1ccc2[nH]ncc2c1-c1nc(-c2cccnc2NC(C)C)cc(C(N)=O)c1N [Compound 866, 5-amino-2′-(isopropylamino)-6-(5-methyl-1H-indazol-4-yl)-[2,3′-bipyridine]-4-carboxamide]
2 h, 2 hours with compound
  pIC50: 7.21

## Cc1ccc2[nH]ncc2c1-c1nc(-c2cc(F)cnc2NC2CCN(CC(F)F)CC2)nc(C(N)=O)c1N [Compound 876]
2 h, 2 hours with compound
  pIC50: 6.13

## Cc1ccc2[nH]ncc2c1-c1nc(-c2cc(F)cnc2N[C@H]2C[C@@H](O)C2)nc(C(N)=O)c1N [Compound 704]
2 h, 2 h compound incubation
  pIC50: 7.77

## Cc1cc(F)c2[nH]ncc2c1-c1nc(-c2cc(F)cnc2NCC(C)(C)C#N)nc(C(N)=O)c1N [Compound 874]
2 h, 2 hours with compound
  pIC50: 6.92

## Cc1ccc2[nH]ncc2c1-c1cc2c(oc3ccc(OCC(F)(F)F)nc32)c(C(N)=O)c1N [Compound 560]
2 h, 2 h compound incubation
  pIC50: 5.15

## NC(=O)c1nc(-c2cccnc2NCC(F)(F)F)nc(-c2c(Cl)c(F)cc3[nH]ncc23)c1N [Compound 942]
2 h, 2 hours with compound
  pIC50: 6.40

## [2H]C([2H])([2H])c1ccc2[nH]ncc2c1-c1nc(-c2cccnc2NC23CC(C(N)=O)(C2)C3)nc(C(N)=O)c1N [Compound 962, 5-amino-2-(2-((3-carbamoylbicyclo[1.1.1]pentan-1-yl)amino)pyridin-3-yl)-6-(5-(methyl-d3)-1H-indazol-4-yl)pyrimidine-4-carboxamide]
2 h, 2 hours with compound
  pIC50: 6.15
